Assay [1] has as its target T1, Axl enzyme (Homo sapiens, UniProt P30530).
T1 sequence (P30530 26-894): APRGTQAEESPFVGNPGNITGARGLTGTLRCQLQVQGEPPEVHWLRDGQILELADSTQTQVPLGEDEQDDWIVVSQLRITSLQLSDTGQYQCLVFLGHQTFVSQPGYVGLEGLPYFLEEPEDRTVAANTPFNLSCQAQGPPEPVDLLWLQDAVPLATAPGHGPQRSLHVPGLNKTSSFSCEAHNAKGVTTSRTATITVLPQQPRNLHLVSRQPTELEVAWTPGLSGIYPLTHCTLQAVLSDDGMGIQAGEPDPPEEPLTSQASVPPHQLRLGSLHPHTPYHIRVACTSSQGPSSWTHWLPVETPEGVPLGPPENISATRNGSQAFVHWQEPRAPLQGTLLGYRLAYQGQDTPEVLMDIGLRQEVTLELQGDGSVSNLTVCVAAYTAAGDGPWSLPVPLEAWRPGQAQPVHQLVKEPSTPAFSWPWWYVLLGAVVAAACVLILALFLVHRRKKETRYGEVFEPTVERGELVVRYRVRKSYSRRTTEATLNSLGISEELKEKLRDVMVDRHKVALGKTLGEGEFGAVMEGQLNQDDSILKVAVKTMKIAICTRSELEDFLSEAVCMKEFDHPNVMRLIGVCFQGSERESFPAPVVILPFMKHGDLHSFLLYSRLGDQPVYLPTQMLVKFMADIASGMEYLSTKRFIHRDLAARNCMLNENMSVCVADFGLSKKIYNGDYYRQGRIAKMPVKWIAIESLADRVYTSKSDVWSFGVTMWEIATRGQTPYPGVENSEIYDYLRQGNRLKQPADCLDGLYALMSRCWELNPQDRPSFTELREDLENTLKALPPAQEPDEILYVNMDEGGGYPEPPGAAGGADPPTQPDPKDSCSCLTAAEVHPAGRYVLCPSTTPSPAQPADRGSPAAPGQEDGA
Description: Measurement of Axl inhibitory activity (LanthaScreen TR-FRET, in vitro test). The format is biochemical. Particulars: Fluorescein-Poly GT substrate. The procedure: Axl enzyme inhibitory activity was measured by using LanthaScreen (registered trademark) system (Invitrogen) based on the attached instruction. The reagents used are shown below.
Reaction buffer solution: a solution containing 50 mmol/L HEPES (pH7.5), 0.01% Brij35, 10 mmol/L MgCl2 and 1 mmol/L EGTA was prepared by using purified water.
Test substance solution: a solution containing a test compound of 5-fold concentration with respect to the final concentration was prepared by 20-fold diluting a DMSO solution of test compound of each concentration with the reaction buffer solution.
Enzyme solution: a solution containing 400 ng/mL Axl enzyme was prepared by using the reaction buffer solution.
Substrate solution: a solution containing 45 μmol/L ATP and 500 nmol/L Fluorescein-Poly GT (Invitrogen) was prepared by using the reaction buffer solution.
Detection solution: a solution containing 20 mM EDTA and 4 nM PY20 (Invitrogen) was prepared by using Dilution B (Invitrogen).
A 10 mmol/L DMSO solution of the test compound was dispensed into a 96-well plate (Nunc), and, furthermore, a 3-fold dilution series was prepared using DMSO. In each well of the 96-well plate for measurement, 5 μL each of the reaction buffer solution containing DMSO was added to a Blank group and a medium group, and 5 μL of the test substance solution was added to the test substance group, respectively. Next, 10 μL/well of the reaction buffer solution was added to the Blank group, and 10 μL/well each of the enzyme solution was added to the medium group and the test compound group, followed by stirring at room temperature for 10 min. After the completion of stirring, 10 μL each of the substrate solution was added into each well, followed by stirring at room temperature with light shielded for one hour. After the completion of reaction, 25 μL each of the detection solution was added to each well, and stood still at room temperature with light shielded for 30 min. After standing sill, fluorescence intensity at 520 nm and 495 nm at the time of irradiation with exciting light of 340 nm was measured by using Analyst GT (Molecular Devices). The phosphorylation of the artificial substrate was quantified by Time-resolved Fluorescence Resonance Energy Transfer (TR-FRET). TR-FRET ratio was calculated by dividing 520 nm fluorescence signal by 495 nm fluorescence signal for each well, and the inhibition rate (%) in the test compound group was calculated based on the following mathematical formula. Inhibition rate (%)=[1−(TR-FRET ratio of test compound group−A)/(B−A)×100 [Math. 1] A: average value of TR-FRET ratios of Blank group B: average value of TR-FRET ratios of medium group
Values of 50% inhibition rate (IC50 values) of the test compound were calculated from the inhibition curve based on the inhibition rate of the test compounds in each concentration.
A general note: In TR-FRET formats the signal depends on donor and acceptor labels being close together.

In assay [2] the target is T2, Ba/F3 Axl (Homo sapiens, UniProt P30530).
T2 sequence (P30530 1-894): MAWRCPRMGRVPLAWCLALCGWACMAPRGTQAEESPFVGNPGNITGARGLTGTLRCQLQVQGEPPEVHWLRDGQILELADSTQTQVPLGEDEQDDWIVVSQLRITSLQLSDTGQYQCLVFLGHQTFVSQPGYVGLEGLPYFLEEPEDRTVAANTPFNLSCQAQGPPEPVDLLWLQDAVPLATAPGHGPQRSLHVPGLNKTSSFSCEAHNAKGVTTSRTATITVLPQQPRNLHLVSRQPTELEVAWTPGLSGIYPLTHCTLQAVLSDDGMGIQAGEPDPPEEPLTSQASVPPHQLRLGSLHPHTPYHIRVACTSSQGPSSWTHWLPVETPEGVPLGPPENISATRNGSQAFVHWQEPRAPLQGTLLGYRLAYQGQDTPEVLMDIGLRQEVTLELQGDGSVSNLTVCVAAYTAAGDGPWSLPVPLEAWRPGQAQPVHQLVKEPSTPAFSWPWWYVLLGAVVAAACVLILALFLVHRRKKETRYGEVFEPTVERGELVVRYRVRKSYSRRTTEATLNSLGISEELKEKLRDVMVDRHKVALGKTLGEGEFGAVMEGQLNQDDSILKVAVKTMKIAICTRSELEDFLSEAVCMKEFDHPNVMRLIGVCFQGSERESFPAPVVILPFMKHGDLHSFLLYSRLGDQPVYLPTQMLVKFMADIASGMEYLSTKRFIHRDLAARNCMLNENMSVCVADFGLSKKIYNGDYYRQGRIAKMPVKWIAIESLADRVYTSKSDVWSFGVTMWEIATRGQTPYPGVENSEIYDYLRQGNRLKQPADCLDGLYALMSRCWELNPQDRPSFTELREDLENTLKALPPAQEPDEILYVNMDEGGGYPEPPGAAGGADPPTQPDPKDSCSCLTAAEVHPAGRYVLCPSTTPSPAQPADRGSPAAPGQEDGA
Description: Proliferation suppression rate using mouse pro-B cell line (Ba/F3 Axl) stably expressing Axl (CellTiter-Glo). The format is cell-based. The settings on record: Ba/F3 Axl cells, 48 hours, read-out: IC50 value of proliferation suppression, Ba/F3 Axl. The procedure: A 0.1 mmol/L DMSO solution of the test compound was dispensed into a 96-well plate, and a 3-fold dilution series was prepared using DMSO. DMSO solutions of test compounds, having various concentrations, were further 500-fold diluted with a RPMI1640 medium (containing 10% HI-FBS, 1% penicillin) and a diluted solution of the test compound having […] with respect to the final concentration was prepared. In each well of the 96-well plate (BD Biosciences) for measurement, 50 μL of a RPMI medium was added to the Blank group, 50 μL of a RPMI medium containing 0.2% DMSO was added to the medium group, and 50 μL of the diluted solution of the test compound was added to the test compound group, respectively. Ba/F3 Axl was diluted with a medium to have a density of 2×10^5 cells/mL to prepare a cell suspension. In each well of the 96-well plate for measurement, 50 μL each of the RPMI medium was added to the Blank group, and 50 μL each of the cell suspension to the medium group and the test compound group, respectively, and the groups were stood still at 37° C. at 5% CO2 for 48 hours. After standing still, Relative Light Unit (RLU) was measured by using CELLTITER-GLO (registered trademark) LUMINESCENT CELL VIABILITY ASSAY (Promega). The measurement was carried out according to the attached instruction. To each well, 100 μL each of light-emitting solution was added. The plate was stirred at room temperature for 3 min and then stool still at room temperature with light shielded for 10 min, and RLU was measured by using Microplate Reader (SpectraMax M5e, Molecular Devices). The average values of RLU of the Blank group and the medium group were respectively calculated, and the proliferation suppression rate of the test compound group was calculated. Proliferation suppression rate (%)={1−(RLU of test compound group−A)/(B−A)}×100 [Math. 2] A: average value of RLU of Blank group B: average value of RLU of medium group
A value of 50% inhibition rate (IC50 value) of the test compound was calculated from the inhibition curve based on the inhibition rate in each concentration of the test compound.

In assay [3] the target is KDR kinase (Homo sapiens, UniProt P35968). Description: Evaluation of kinase selectivity (KDR kinase IC50 versus Axl IC50, in vitro test). The format is biochemical. The settings on record: Axl selective inhibitory activity with respect to KDR kinase, ratio of IC50 values. As for the experimental part:
Similar to Biological Example 1, values of 50% inhibition rate (IC50 value) with respect to the KDR kinase of the test compound was measured. The Axl selective inhibitory activity of the test compound with respect to KDR kinase was calculated based on the above-mentioned ratio of the IC50 values. As the test compounds, for the compounds of the present invention, the compounds of Examples 21, 42, 66, and 28 were used, and for the comparative compounds, the compound of Example 74 (Comparative compound B) and the compound of Example 92 (Comparative compound C) described in Patent Literature 5, having the following structure, were used.

KDR kinase, sequence (P35968 20-1356): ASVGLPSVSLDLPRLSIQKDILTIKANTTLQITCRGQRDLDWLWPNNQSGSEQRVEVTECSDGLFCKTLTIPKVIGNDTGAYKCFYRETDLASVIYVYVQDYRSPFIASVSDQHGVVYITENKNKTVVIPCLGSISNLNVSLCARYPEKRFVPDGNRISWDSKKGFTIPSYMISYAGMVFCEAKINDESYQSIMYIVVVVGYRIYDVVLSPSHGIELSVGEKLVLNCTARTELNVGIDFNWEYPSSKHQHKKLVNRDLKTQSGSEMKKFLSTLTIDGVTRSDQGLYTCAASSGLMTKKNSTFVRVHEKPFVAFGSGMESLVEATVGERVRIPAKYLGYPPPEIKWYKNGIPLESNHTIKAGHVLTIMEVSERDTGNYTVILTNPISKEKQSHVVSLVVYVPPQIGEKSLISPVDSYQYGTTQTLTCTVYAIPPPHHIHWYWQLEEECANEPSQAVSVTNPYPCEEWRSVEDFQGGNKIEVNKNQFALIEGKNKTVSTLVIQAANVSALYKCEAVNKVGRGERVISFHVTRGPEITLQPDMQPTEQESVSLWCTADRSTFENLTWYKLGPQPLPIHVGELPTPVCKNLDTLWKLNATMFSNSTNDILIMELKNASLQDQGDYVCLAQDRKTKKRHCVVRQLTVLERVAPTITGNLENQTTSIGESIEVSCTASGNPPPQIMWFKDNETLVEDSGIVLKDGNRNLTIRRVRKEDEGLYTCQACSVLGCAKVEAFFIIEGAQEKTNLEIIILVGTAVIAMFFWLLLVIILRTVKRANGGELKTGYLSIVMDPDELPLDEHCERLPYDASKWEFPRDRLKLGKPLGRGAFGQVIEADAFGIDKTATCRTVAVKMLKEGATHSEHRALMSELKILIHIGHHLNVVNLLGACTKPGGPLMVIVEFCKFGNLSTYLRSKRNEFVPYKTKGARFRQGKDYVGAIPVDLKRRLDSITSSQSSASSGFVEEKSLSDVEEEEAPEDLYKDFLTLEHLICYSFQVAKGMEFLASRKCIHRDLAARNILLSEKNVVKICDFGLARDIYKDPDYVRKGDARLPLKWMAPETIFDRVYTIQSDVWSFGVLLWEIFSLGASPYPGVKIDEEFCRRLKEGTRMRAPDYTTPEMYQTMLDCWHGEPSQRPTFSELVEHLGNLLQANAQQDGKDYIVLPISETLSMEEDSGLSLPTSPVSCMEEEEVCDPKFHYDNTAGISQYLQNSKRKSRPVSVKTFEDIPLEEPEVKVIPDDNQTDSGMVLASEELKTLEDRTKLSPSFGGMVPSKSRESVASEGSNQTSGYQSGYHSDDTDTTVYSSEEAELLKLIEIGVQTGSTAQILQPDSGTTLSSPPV

In assay [1], `CC#CC(=O)N1CCc2cc(C(=O)Nc3ccc(Oc4ccnc5cc(OC)c(OC)cc45)cn3)c(=O)n(-c3ccccc3)c2C1` [Example 36, 7-(2-butynoyl)-N-{5-[(6,7-dimethoxy-4-quinolinyl)oxy]-2-pyridinyl}-2-oxo-1-phenyl-1,2,5,6,7,8-hexahydro-1,7-naphthyridine-3-carboxamide] had an IC50 of 1.5 nM. Further, in assay [2], the GI50 was found to be 0.47 nM.
As to `COc1cc2c(Oc3ccc(NC(=O)c4cccc5cccnc45)cc3F)ccnc2cc1OCCCN1CCOCC1` [Comparative compound B, reference compound], the “KDR [IC50]/Ax1 [IC50]” value in assay [3] was “about 0.2 times”.
In turn, `COc1cc2nccc(Oc3ccc(NC(=O)c4cc5ccc(N)cc5n(-c5ccccc5)c4=O)nc3)c2cc1OC` [Example 73, 7-amino-N-{5-[(6,7-dimethoxy-4-quinolinyl)oxy]-2-pyridinyl}-2-oxo-1-phenyl-1,2-dihydro-3-quinolinecarboxamide] returned an IC50 in assay [1] of 4 nM. In assay [2], the GI50 amounted to 0.76 nM.
For the compound `COc1cc2c(Oc3ccc(NC(=O)c4ccnn(-c5ccc(F)cc5)c4=O)cn3)ccnc2cc1OCCCN1CCOCC1` [Comparative compound C, reference compound], the “KDR [IC50]/Ax1 [IC50]” value in assay [3] is reported as “about 28 times”.
In assay [1], `COc1cc2nccc(Oc3ccc(NC(=O)c4cc5ccccc5[nH]c4=O)cc3)c2cc1OC` [Comparative compound A, reference compound] came in with an IC50 of more than 10000 nM. Besides, the GI50 in assay [2] is more than 10000 nM.

For orientation: IC50 means the midpoint of a concentration-inhibition curve.

(Values after patent publication US10208034B2, “Quinoline derivative” (ONO PHARMACEUTICAL CO., LTD., priority 2014, dated 2019).)
